One may read the viability as the share of living cells, or the viability signal relative to a control. Higher therefore signals less harm to the cells. By melting point is commonly meant the temperature of the solid-liquid transition. The term inhibition denotes the change of the read-out against control, counted positive when it falls. A word on the IC50: it is the midpoint of a concentration-inhibition curve.

We go through 13 molecules from publication PMC3954757, “Novel Potent Imidazo[1,2-a]pyridine-N-Glycinyl-Hydrazone Inhibitors of TNF-α Production: In Vitro and In Vivo Studies” (PLoS ONE, 2014).

Each structure is given as a SMILES string. Values joined by “and” are separate entries in the source; they are usually repeats but may differ in a detail not shown here. Equal entries are not always repeated.

Data set [1] can be described thus: Cell viability by MTT assay. The settings on record: mouse, peritoneal macrophages; 10 µM; MTT; compared to vehicle (DMSO). It counts as cell-based, mouse. On the procedure:
(§1) The peritoneal macrophage were obtained and plated as described above. The cells were incubated with the vehicle or compounds for 20 hours when was added 200 µL of RPMI medium containing 0.5 mg/mL MTT […] (3-(4,5-dimethylthiazol-2-yl)-2,5-diphenyltetrazolium bromide) followed by 4 hour of incubation at 37°C in a 5% CO2 atmosphere. After incubation supernatants were discarded and 200 µL DMSO (dimethylsulfoxide) were added to solubilize the MTT-formazan crystals. The optical density was measured in a microplate reader at 490 nm. The control groups consisted of cells with medium plus vehicle used to dissolve the substances and was considered as 100% of viable cells. Results are expressed as percentage of viable cells when compared with control groups.
For orientation: Formazan colour is commonly taken as a measure of viable cells.

Data set [2] relates to TNF-α production. Description: LPS-induced TNF-α production in culture of mice peritoneal macrophage (ELISA). The settings on record: Mus musculus; for inhibition at 10 µM: 24 h, read-out: TNF-α % inhibition at 10 µM; for IC50: read-out: TNF-α IC50. A general note: In an ELISA, binding on a coated surface is turned into a signal by an enzyme label.
Method: BALBc mice received thyoglicollate 3% (1 mL/mice; i.p.) and 3 days later the peritoneal cavities were washed with RPMI 1640 culture medium (Sigma, USA, supplemented with 10% fetal bovine serum). The peritoneal macrophages were plated onto 96-wells plate (30.000 cells/well) for 1 hour at 37°C in a humidified 5% CO2 atmosphere. Then, macrophages were incubated with the vehicle or compounds and 1 hour later stimulated with LPS(100 ng/mL) for 24 hours when the supernatants were collected to evaluate TNF-α production by ELISA kit (B&D Bioscience, USA).
Data set [3] concerns murine peritoneal macrophages. Briefly: Cell viability by MTT assay. It counts as cell-based, mouse. The conditions noted are these: for IC50: Mus musculus, Peritoneal macrophage, MTT cytotoxicity, concentration range 0.1–100 µM; for Selectivity Index (SI): SI = cytotoxicity IC50/anti-TNF-α IC50. As for the experimental part:
as §1

Data set [4] has as its target p38α MAPK (Homo sapiens, UniProt Q16539). Briefly: p38α MAPK activity, nonradioactive immunosorbent assay. It counts as biochemical. As for the experimental part:
Because the novel N-acylhydrazone derivatives 1 were designed based on the p38α MAPK inhibitor BIRB-796 (3), some of them were evaluated for their in vitro capacity to inhibit p38α MAPK activity at a concentration of 10 µM.
*This assay was performed as described by Goettert MR, Graeser, Laufer SA (2010) Optimization of a nonradioactive immunosorbent assay for p38 alpha mitogen-activated protein kinase activity. Anal Biochem 406: 233–234.

The test system of data set [5] is TNF-α production. Description: Subcutaneous air pouch (SAP) model, TNF-α in exudate. It counts as in vivo, mice. The settings on record: 1i oral pre-treatment, carrageenan 1% SAP. The source says: Because compound 1i provided a better balance between the IC50 value for TNF-α production and cellular toxicity in vitro, we evaluated its effects in the subcutaneous air pouch (SAP) model, an in vivo model of inflammation and TNF production, [28].
Figure 4 Effect of compound 1i on TNF-α production. Twenty-four hours prior to carrageenan (1%) injection into the subcutaneous air pouch (SAP), animals were pretreated by oral administration with different doses of a solution of 1i. The results are presented as the mean ± S. D. (n = 6–10) of TNF-α (pg/mL). Statistical significance was calculated by ANOVA followed by Bonferroni’s test. * indicates p<0.005 for the comparison of 1i -treated mice with the vehicle-treated group; # indicates p<0.005 for the comparison of vehicle-treated mice with the PBS-treated group.
(§2) The experimental protocol was similar to that described by Romano and colleagues (1997) with several modifications described by Raymundo and colleagues (2011). The animals received a dorsal subcutaneous injection of sterile air (10 mL) on three alternate days to induce the SAP. On the sixth day, animals received a subcutaneous injection of sterile carrageenan suspension (1%; 1 mL). Mice were pre-treated with vehicle (Polysorbate 80), 1i (3, 10, 30 and 100 µmol/kg) or dexamethasone (1.5 µmol/kg, i.p.) 1 h before carrageenan injection into the SAP. The control group received an injection of sterile PBS (1 mL) into the SAP. Animals were sacrificed 24 h after carrageenan injection. The cavity was washed with 1 mL of sterile PBS. Exudates were collected, centrifuged at 11,000 rpm for 10 min at 4°C and TNF-α accumulated was quantified. The cytokines quantification was done by enzyme-linked immunosorbent assay (ELISA) according to the manufacturer’s instructions (B&D, USA). The results are expressed as pg/mL of each cytokine. Animals were sacrificed after an exposition to a saturated carbon dioxide atmosphere in an appropriate gas chamber.

Data set [6] has as its system IFN-γ production. Briefly: Subcutaneous air pouch (SAP) model, IFN-γ in exudate. It counts as in vivo, mice. The settings on record: oral. On the procedure: (§3) We also measured the levels of the cytokines interferon-γ (IFN- γ) and interleukin 1β (IL-1β).
(§4) Figure 5 Effect of compound 1i on IL-1β and IFN-γ production. Twenty-four hours prior to carrageenan (1%) injection into the subcutaneous air pouch (SAP), animals were pretreated by oral administration with different doses of a solution of 1i. The results are presented as the mean ± S. D. (n = 6–10) of each cytokine (ng/mL). Statistical significance was calculated by ANOVA followed by Bonferroni’s test. * indicates p<0.005 for the comparison of 1i -treated mice with the vehicle-treated group; # indicates p<0.005 for the comparison of vehicle-treated mice with the PBS-treated group.
as §2

Data set [7] relates to IL-1β production. Description: Subcutaneous air pouch (SAP) model, IL-1β in exudate. It counts as in vivo, mice. The conditions noted are these: oral. On the procedure: as §3, §4, §2

Sequence of p38α MAPK (Q16539 whole entry): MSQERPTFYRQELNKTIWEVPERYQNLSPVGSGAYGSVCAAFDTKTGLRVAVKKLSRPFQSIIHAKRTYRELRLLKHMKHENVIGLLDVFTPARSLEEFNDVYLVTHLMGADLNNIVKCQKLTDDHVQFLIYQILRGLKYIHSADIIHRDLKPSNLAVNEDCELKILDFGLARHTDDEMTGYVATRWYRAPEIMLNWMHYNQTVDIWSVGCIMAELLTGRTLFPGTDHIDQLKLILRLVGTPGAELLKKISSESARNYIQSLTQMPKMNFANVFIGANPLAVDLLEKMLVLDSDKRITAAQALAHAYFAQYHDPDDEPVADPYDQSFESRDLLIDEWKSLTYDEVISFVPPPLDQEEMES

`O=C(CNc1c(-c2ccccc2)nc2ccccn12)N/N=C/c1ccc(O)cc1` [Compound 1d, (E)-N’-(4-hydroxybenzylidene)-2-(2-phenylimidazo[1,2-a]pyridin-3-ylamino) acetohydrazide] showed a melting point of 273 to 275 °C. Further, in data set [1], the viability at 20 h, 10 µM was determined as 100%. Also, in data set [2], the inhibition at 10 µM stood at 56.7% and the IC50 is 3.67 µM.
The molecule `O=C(CNc1c(-c2ccccc2)nc2ccccn12)N/N=C/c1ccc(O)c2ccccc12` [Compound 1j, (E)-N’-((4-hydroxynaphthalen-1-yl)methylene)-2-(2-phenylimidazo[1,2-a]pyridin-3-ylamino)acetohydrazide] yielded a melting point greater than 300 °C. Moreover, in data set [3], the concentration for half-maximal inhibition (IC50) worked out at 10.4 µM and the “Selectivity Index (SI)” value is 33.5. In addition, the viability at 20 h, 10 µM in data set [1] stood at 40%. Moreover, in data set [2], the inhibition at 10 µM worked out at 90.8% and the IC50 was determined as 0.31 µM.
Take `O=C(CNc1c(-c2ccccc2)nc2ccccn12)N/N=C/c1ccc(OCCN2CCOCC2)cc1` [Compound 1c, (E)-N’-(4-(2-morpholinoethoxy)benzylidene)-2-(2-phenylimidazo[1,2-a]pyridin-3-ylamino)acetohydrazide]: the melting point is 169 to 171 °C and 167 to 169 °C. Besides, in data set [1], the viability at 20 h, 10 µM was found to be 100%. Also, the inhibition at 10 µM in data set [4] amounted to 22.6%. Also, the inhibition at 10 µM in data set [2] was 18.3%.
With `CC(C)(C)c1nc2ccccn2c1NCC(=O)N/N=C/c1ccccc1` [Compound 1g, (E)-N’-benzylidene-2-(2-tert-butylimidazo[1,2-a]pyridin-3-ylamino)acetohydrazide], the melting point lay within 230 to 232 °C. This molecule also returned a viability at 20 h, 10 µM in data set [1] of 100%. Moreover, the inhibition at 10 µM in data set [2] was determined as 5.6%.
Molecule `O=C(CNc1c(-c2ccccc2)nc2ccccn12)N/N=C/c1ccc(OCCN2CCOCC2)c2ccccc12` [Compound 1b, (E)-N’-((4-(2-morpholinoethoxy)naphthalen-1-yl)methylene)-2-(2-phenylimidazo [1,2-a]pyridin-3-ylamino)acetohydrazide] displayed a melting point of 105 to 108 °C. Moreover, in data set [3], 14.7 µM corresponded to half-maximal inhibition (IC50) and the “Selectivity Index (SI)” value was determined as 43.2. Further, in data set [1], the viability at 20 h, 10 µM is 78.4%. Besides, the inhibition at 10 µM in data set [4] was determined as 6.5%. Also, in data set [2], the inhibition at 10 µM is 77.3% and the IC50 is 0.34 µM.
In the case of `C[S+]([O-])c1ccc(-c2nc(-c3ccncc3)c(-c3ccc(F)cc3)[nH]2)cc1` (stereo not drawn) [SB-203580, reference compound], the viability at 20 h, 10 µM in data set [1] was found to be 44.3%. Also, the inhibition at 10 µM in data set [2] was found to be 90%.
Regarding `CC(C)(C)c1nc2ccccn2c1NCC(=O)N/N=C/c1ccc(Cl)cc1` [Compound 1i, (E)-2-(2-tert-butylimidazo[1,2-a]pyridin-3-ylamino)-N’-(4-chlorobenzylidene) acetohydrazide], the melting point was in the range of 232 to 234 °C. Further, in data set [3], inhibition was half-maximal at 21.7 µM (IC50) and the “Selectivity Index (SI)” value is 103.3. In addition, the viability at 20 h, 10 µM in data set [1] was found to be 73.3%. Also, in data set [2], the inhibition at 10 µM came out at 78% and the concentration for half-maximal inhibition (IC50) came to 0.21 µM. Besides, the “reduction of TNF-α production” value in data set [5] (3 µmol/kg) turned out to be 96.8%. The “reduction of TNF-α production” value in data set [5] (10 µmol/kg) was 90.6%. In data set [5] (30 µmol/kg), the “reduction of TNF-α production” value is reported as 97.3%. Also, the “reduction of TNF-α production” value in data set [5] (100 µmol/kg) is reported as 95.31%. Moreover, in data set [6] (3 µmol/kg), the “inhibition of IFN-γ” value worked out at 83.7%. Moreover, the “inhibition of IFN-γ” value in data set [6] (10 µmol/kg) stood at 83%. Further, in data set [6] (30 µmol/kg), the “inhibition of IFN-γ” value is 82.8%. The “inhibition of IFN-γ” value in data set [6] (100 µmol/kg) is on record as 82.4%. Moreover, the “reduction in IL-1β” value in data set [7] (3 µmol/kg) came to 81%. In data set [7] (10 µmol/kg), the “reduction in IL-1β” value came out at 69.5%. Besides, the “reduction in IL-1β” value in data set [7] (30 µmol/kg) worked out at 74.7%. In data set [7] (100 µmol/kg), the “reduction in IL-1β” value was found to be 65.7%.
`O=C(CNc1c(-c2ccccc2)nc2ccccn12)N/N=C/c1ccccc1` [Compound 1f, (E)-N’-benzylidene-2-(2-phenylimidazo[1,2-a]pyridin-3-ylamino)acetohydrazide] showed a melting point of 138 to 141 °C. The viability at 20 h, 10 µM in data set [1] was found to be 100%. For the same molecule, the inhibition at 10 µM in data set [2] is 29.3%.
For `CC(C)(C)c1nc2ccccn2c1NCC(=O)N/N=C/c1ccc(OCCN2CCOCC2)c2ccccc12` [Compound 1a, (E)-2-(2-tert-butylimidazo[1,2-a]pyridin-3-ylamino)-N’-((4-(2-morpholinoethoxy)naphthalen-1-yl)methylene)acetohydrazide], the melting point is 135 to 137 °C. Further, in data set [3], inhibition was half-maximal at 6.9 µM (IC50) and the “Selectivity Index (SI)” value is 11.1. Also, in data set [1], the viability at 20 h, 10 µM came to 20.1%. In data set [4], the inhibition at 10 µM turned out to be 11.8%. Also, in data set [2], the inhibition at 10 µM was found to be 95.3% and the IC50 was 0.62 µM.
As to `O=C(CNc1c(-c2ccccc2)nc2ccccn12)N/N=C/c1ccc(Cl)cc1` [Compound 1e, (E)-N’-(4-chlorobenzylidene)-2-(2-phenylimidazo[1,2-a]pyridin-3-ylamino) acetohydrazide], the melting point was 122 to 124 °C and 120 to 122 °C. Further, in data set [1], the viability at 20 h, 10 µM was found to be 100%. In data set [2], the inhibition at 10 µM was 53.8% and the IC50 was found to be 3.05 µM.
Take `CC(C)(C)c1cc(NCC(=O)N/N=C/c2ccc(OCCN3CCOCC3)c3ccccc23)n(-c2ccccc2)n1` [LASSBio-1504 (2), reference compound]: in data set [3], the IC50 turned out to be 10.3 µM and the “Selectivity Index (SI)” value was 2.8. Further, in data set [1], the viability at 20 h, 10 µM was determined as 61.5%. Also, in data set [2], the inhibition at 10 µM was 96.9% and the IC50 is 3.6 µM.
Consider `O=C(CNc1c(-c2ccccc2)nc2ccccn12)N/N=C/c1cccc2ccccc12` [Compound 1k, (E)-N’-(naphthalen-1-ylmethylene)-2-(2-phenylimidazo[1,2-a]pyridin-3-ylami-no)acetohydrazide], for which the melting point was in the range of 208 to 210 °C. For the same molecule, in data set [3], 23.5 µM corresponded to half-maximal inhibition (IC50) and the “Selectivity Index (SI)” value is 23.7. This molecule registered a viability at 20 h, 10 µM in data set [1] of 83.2%. In addition, the inhibition at 10 µM in data set [4] was found to be 17.2%. In addition, in data set [2], the inhibition at 10 µM was determined as 75.8% and the IC50 is 0.99 µM.
Regarding `CC(C)(C)c1nc2ccccn2c1NCC(=O)N/N=C/c1ccc(OCCN2CCOCC2)cc1` [Compound 1h, (E)-2-(2-tert-butylimidazo[1,2-a]pyridin-3-ylamino)-N’-(4-(2-morpholinoethoxy)benzylidene)acetohydrazide], the viability at 20 h, 10 µM in data set [1] was found to be 100%. Also, the inhibition at 10 µM in data set [2] worked out at 2.8%.
